Laboratory results: patent US7932262B2 (Novartis AG, priority 2006, dated 2011)
Where two headings read alike, the source gives them in different places.

Tests used:
PDK1 kinase = biological target: T1, PDK1 kinase (Homo sapiens, UniProt O15530); experiment: PDK1 Kinase Alpha Screen Assay; format: biochemical
T1 sequence (O15530 1-556): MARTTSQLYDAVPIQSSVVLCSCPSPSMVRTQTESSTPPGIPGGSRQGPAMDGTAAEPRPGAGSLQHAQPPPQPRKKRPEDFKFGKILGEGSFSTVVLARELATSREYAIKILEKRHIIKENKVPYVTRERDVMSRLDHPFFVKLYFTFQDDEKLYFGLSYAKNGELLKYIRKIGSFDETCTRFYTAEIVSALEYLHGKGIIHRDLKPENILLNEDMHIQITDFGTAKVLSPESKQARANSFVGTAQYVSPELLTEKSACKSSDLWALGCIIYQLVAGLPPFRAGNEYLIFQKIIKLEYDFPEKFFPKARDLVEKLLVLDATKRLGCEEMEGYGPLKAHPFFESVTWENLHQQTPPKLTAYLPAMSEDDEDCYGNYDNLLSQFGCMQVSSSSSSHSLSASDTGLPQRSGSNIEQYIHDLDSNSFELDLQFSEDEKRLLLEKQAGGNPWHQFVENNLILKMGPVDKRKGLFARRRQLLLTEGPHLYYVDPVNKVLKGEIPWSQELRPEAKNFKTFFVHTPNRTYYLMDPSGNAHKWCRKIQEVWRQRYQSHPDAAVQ
Method in brief: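 PDK1 phosphorylated 50 nM biotinylated PDK1-4 peptide with 10 uM ATP in Tris pH 7.5, 10 mM MgCl2, 2 mM DTT, 2.5% DMSO for 3-18 hours. After EDTA stop, phosphopeptide was detected by AlphaScreen using phospho-(Ser/Thr) PKA substrate antibody with protein A/streptavidin beads, read after overnight incubation.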

PC-3 cells = experiment: Cell Proliferation Assay (Cell Titer Glo), PC-3 cell line; format: cell-based; settings: Homo sapiens
Method in brief: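 PC-3 cells, 1000 cells/well, left to adhere 3-5 h, then exposed for 3 days at 37° C to compounds as 1:3 serial dilutions from 500× DMSO stocks diluted in growth medium. Medium then replaced with fresh medium and viability read by Cell Titer Glo luminescence.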

[1] = PDK1 Kinase Alpha Screen Assay, read-out: PDK1 IC50
[2] = PC-3, Cell Proliferation Assay, PC3, read-out: CPEC50 PC3
[3] = PC-3, PC3 cells, read-out: CPEC50 PC3

SMILES | IC50 (PDK1 kinase; [1]) [µM] | EC50 (PC-3 cells; [2]) [µM] | IC50 (PDK1 kinase; read-out: PDK1 IC50) [µM] | EC50 (PC-3 cells; [3]) [µM] | other results
COc1ccc(NC(C)=O)cc1Nc1ncc2cccc(OC3CCNCC3)c2n1 [Compound 547, N-(4-methoxy-3-(8-(piperidin-4-yloxy)quinazolin-2-ylamino)phenyl)acetamide] | 5 to 10 | 5 to 10 | – | – | –
COc1cc(Nc2ncc3cccc(OC4CCN(C(C)C)CC4)c3n2)cc(OC)c1 [Compound 526, N-(3,5-dimethoxyphenyl)-8-(1-isopropylpiperidin-4-yloxy)quinazolin-2-amine] | < 5 | 5 to 10 | – | – | –
CC(C)NS(=O)(=O)c1ccc(Nc2ncc3cccc(-c4ccc(NCCN5CCCC5)nc4)c3n2)cc1 [Compound 1016, N-isopropyl-4-(8-(6-(2-(pyrrolidin-1-yl)ethylamino)pyridin-3-yl)quinazolin-2-ylamino)benzenesulfonamide] | – | – | < 5 | < 5 | –
Cn1cc(-c2ccc(Nc3ncc4ccc(OC5CCNCC5)cc4n3)cc2F)cn1 [Compound 598, N-(3-fluoro-4-(1-methyl-1H-pyrazol-4-yl)phenyl)-7-(piperidin-4-yloxy)quinazolin-2-amine] | < 5 | 5 to 10 | – | – | –
CN1CCC(CNc2ccc3cnc(Nc4ccc(C(=O)N5CCOCC5)cc4)nc3c2)CC1 [Compound 348] | < 5 | 5 to 10 | – | – | –
CC(C)N1CCC(Oc2cc(Br)cc3cnc(Nc4ccc(F)cc4)nc23)CC1 [Compound 389, 6-bromo-N-(4-fluorophenyl)-8-(1-isopropylpiperidin-4-yloxy)quinazolin-2-amine] | < 5 | < 5 | – | – | –
Cc1ccc(OC2CCN(C(C)C)CC2)c2nc(Nc3ccc(S(=O)(=O)NC(C)C)cc3)ncc12 [Compound 360, N-isopropyl-4-(8-(1-isopropylpiperidin-4-yloxy)-5-methylquinazolin-2-ylamino)benzenesulfonamide] | < 5 | < 5 | – | – | –
Clc1cc(Nc2ncc3ccc(NC4CCNCC4)cc3n2)ccc1N1CCOCC1 [Compound 363, N2-(3-chloro-4-morpholinophenyl)-N7-(piperidin-4-yl)quinazoline-2,7-diamine] | < 5 | < 5 | – | – | –
NS(=O)(=O)c1ccc(Nc2ncc3cc(Cl)cc(-c4ccc(NCCN5CCCC5)nc4)c3n2)cc1 [Compound 927, 4-(6-choro-8-(6-(2-(pyrrolidin-1-yl)ethylamino)pyridin-3-yl)quinazolin-2-ylamino)benzenesulfonamide] | – | – | < 5 | < 5 | –
O=C(c1cc(F)cc(Nc2ncc3cccc(OC4CCNCC4)c3n2)c1)N1CCOCC1 [Compound 462] | < 5 | < 5 | – | – | –
O=C(c1ccc(Nc2ncc3c(Cl)ccc(OC4CCNCC4)c3n2)cc1F)N1CCOCC1 [Compound 378, (4-(5-chloro-8-(piperidin-4-yloxy)quinazolin-2-ylamino)-2-fluorophenyl)(morpholino)methanone] | < 5 | < 5 | – | – | –
CCN1CCC[C@@H]1CNc1ccc(-c2cccc3cnc(Nc4ccc(S(N)(=O)=O)cc4)nc23)cn1 [Compound 974, (R)-4-(8-(6-((1-ethylpyrrolidin-2-yl)methylamino)pyridin-3-yl)quinazolin-2-ylamino)benzenesulfonamide] | – | – | < 5 | < 5 | –
NS(=O)(=O)c1ccc(Nc2ncc3c(-c4cn[nH]c4)ccc(OC4CCNCC4)c3n2)cc1 [Compound 586, 4-(8-(piperidin-4-yloxy)-5-(1H-pyrazol-4-yl)quinazolin-2-ylamino)benzensulfonamide] | 5 to 10 | 5 to 10 | – | – | –
COCCn1cc(-c2ccc3cnc(Nc4ccc(C(=O)N5CCOCC5)cc4)nc3c2)cn1 [Compound 349, (4-(7-(1-(2-methoxyethyl)-1H-pyrazol-4-yl)quinazolin-2-ylamino)phenyl)(morpholino)methanone] | < 5 | < 5 | – | – | –
Cc1ccc(C(=O)O)cc1-c1ccc2cnc(Nc3ccc(S(N)(=O)=O)cc3)nc2c1 [Compound 390, 4-methyl-3-(2-(4-sulfamoylphenylamino)quinazolin-7-yl)benzoic acid] | < 5 | 5 to 10 | – | – | –
CN(C)C1CCN(C(=O)c2cncc(-c3cccc4cnc(Nc5ccc(S(N)(=O)=O)cc5)nc34)c2)CC1 [Compound 980, 4-(8-(5-(4-(dimethylamino)piperidine-1-carbonyl)pyridin-3-yl)quinazolin-2-ylamino)benzenesulfonamide] | – | – | < 5 | 5 to 10 | –
CN(C)[C@H]1CCN(C(=O)c2cncc(-c3cccc4cnc(Nc5ccc(S(N)(=O)=O)cc5)nc34)c2)C1 [Compound 978, (S)-4-(8-(5-(3-(dimethylamino)pyrrolidine-1-carbonyl)pyridin-3-yl)quinazolin-2-ylamino)benzenesulfonamide] | – | – | < 5 | 5 to 10 | –
O=C(c1ccc(Nc2ncc3c(Cl)ccc(OC4CNC4)c3n2)cc1)N1CCOCC1 [Compound 608, (4-(8-(azetidin-3-yloxy)-5-chloroquinazolin-2-ylamino)phenyl)(morpholino)methanone] | < 5 | 5 to 10 | – | – | –
CC(C)NC(=O)c1ccc(Nc2ncc3cccc(OC4CCNCC4)c3n2)cc1Cl [Compound 482, 2-chloro-N-isopropyl-4-(8-(piperidin-4-yloxy)quinazolin-2-ylamino)benzamide] | < 5 | < 5 | – | – | –
NS(=O)(=O)c1ccc(Nc2ncc3cccc(-c4cncc(CNC5CCOCC5)c4)c3n2)cc1 [Compound 948, 4-(8-(5-((tetrahydro-2H-pyran-4-ylamino)methyl)pyridin-3-yl)quinazolin-2-ylamino)benzenesulfonamide] | – | – | < 5 | < 5 | –
COc1c(-c2cnn(C)c2)cc(Cl)c2cnc(Nc3ccc(C(=O)NC4CC4)cc3)nc12 [Compound 1038, 4-(5-chloro-8-methoxy-7-(1-methyl-1H-pyrazol-4-yl)quinazolin-2-ylamino)-N-cyclopropylbenzamide] | – | – | – | < 5 | IC50 (PDK1 kinase; head of the second part of Table 4: BV11261, read-out: PDK1 BV11261): < 5 µM
CC(C)N1CCC(Oc2cccc3cnc(Nc4ccccc4F)nc23)CC1 [Compound 532, N-(2-fluorophenyl)-8-(1-isopropylpiperidin-4-yloxy)quinazolin-2-amine] | 5 to 10 | 5 to 10 | – | – | –
Nc1cc(C(F)(F)F)c(-c2ccc3cnc(Nc4ccc(S(N)(=O)=O)cc4)nc3c2OC2CCNCC2)cn1 [Compound 69, 4-[7-(6-Amino-4-trifluoromethyl-pyridin-3-yl)-8-(piperidin-4-yloxy)-quinazolin-2-ylamino]-benzenesulfonamide] | – | – | < 5 | – | EC50 (PC-3 cells; PC-3, 72 h, PC-3 cells, 3 days incubation, read-out: CP EC50 PC3): 5 to 10 µM
CN1CCC(CNc2ccc(-c3cccc4cnc(Nc5ccc(S(N)(=O)=O)cc5)nc34)cn2)CC1 [Compound 975, 4-(8-(6-((1-methylpiperidin-4-yl)methylamino)pyridin-3-yl)quinazolin-2-ylamino)benzenesulfonamide] | – | – | < 5 | < 5 | –
c1cc(Nc2ncc3cccc(-c4ccc(NCCN5CCCC5)nc4)c3n2)cc(N2CCOCC2)c1 [Compound 1022, N-(3-morpholinophenyl)-8-(6-(2-(pyrrolidin-1-yl)ethylamino)pyridin-3-yl)quinazolin-2-amine] | – | – | < 5 | < 5 | –
CN(C)C(=O)c1cc(Nc2ncc3cccc(OC4CCNCC4)c3n2)ccc1N1CCOCC1 [Compound 455, N,N-dimethyl-2-morpholino-5-(8-(piperidin-4-yloxy)quinazolin-2-ylamino)benzamide] | < 5 | 5 to 10 | – | – | –
NS(=O)(=O)c1ccc(Nc2ncc3cccc(-c4cncc(CN5CCNC(=O)C5)c4)c3n2)cc1 [Compound 944, 4-(8-(5-((3-oxopiperazin-1-yl)methyl)pyridin-3-yl)quinazolin-2-ylamino)benzenesulfonamide] | – | – | < 5 | 5 to 10 | –
Fc1cc(Nc2ncc3c(Cl)ccc(OC4CNC4)c3n2)ccc1N1CCOCC1 [Compound 610, 8-(azetidin-3-yloxy)-5-chloro-N-(3-fluoro-4-morpholinophenyl)quinazolin-2-amine] | < 5 | 5 to 10 | – | – | –
CC(C)N1CCC(Oc2cc3nc(Nc4ccc(N5CCOCC5)cc4)ncc3cc2Br)CC1 [Compound 620, 6-bromo-7-(1-isopropylpiperidin-4-yloxy)-N-(4-morpholinophenyl)quinazolin-2-amine] | < 5 | < 5 | – | – | –
N#Cc1cc(OC2CCNCC2)c2nc(Nc3ccc(N4CCOCC4)cc3)ncc2c1 [Compound 701, 2-(4-morpholinophenylamino)-8-(piperidin-4-yloxy)quinazoline-6-carbonitrile] | < 5 | < 5 | – | – | –
